Laboratory results taken from US7241803B2, “Compounds for inhibition of HIV infection by blocking HIV entry” (New York Blood Center, priority 2002, dated 2007).

Tests used:
HIV-1 RF (clade B, X4) = test: infection by laboratory-adapted HIV-1 strain, p24 production; assay type: cell-based
Method: Assessment of anti-HIV-1 infectivity. The inhibitory activity of compounds on infection by laboratory-adapted HIV-1 strains was determined as previously described (18). In brief, 1×10^4 MT-2 cells were infected with HIV-1 at 100 TCID50 (50% tissue culture infective dose) in 200 μl of RPMI 1640 medium containing 10% FBS in the presence or absence of compounds at graded concentrations overnight. For the time-of-addition assay, compounds were added at various time post-infection. Then the culture supernatants were removed and fresh media were added. On the fourth day post-infection, 100 μl of culture supernatants were collected from each well, mixed with equal volumes of 5% Triton X-100 and assayed for p24 antigen, which was quantitated by ELISA (51). Briefly, the wells of polystyrene plates (Immulon 1B, Dynex Technology, Chantilly, Va.) were coated with HIV immunoglobulin (HIVIG), which was prepared from plasma of HIV-seropositive donors with high neutralizing titers against HIV-1IIIB as previously described (44) in 0.085 M carbonate-bicarbonate buffer (pH 9.6) at 4° C. overnight, followed by washes with PBS-T buffer (0.01M PBS containing 0.05% Tween-20) and blocking with PBS containing 1% dry fat-free milk (Bio-Rad Inc., Hercules, Calif.). Virus lysates were added to the wells and incubated at 37° C. for 1 h. […] Absorbance at 450 nm was recorded in an ELISA reader (Ultra 384, Tecan). […]

[1] = tested on: MT-2 & H9/HIV-1IIIB (clade B, X4); test: cell-cell fusion, dye transfer assay; assay type: cell-based; details: MT-2 & H9/HIV-1IIIB (clade B, X4)
Method: Inhibition of cell-cell fusion. A dye transfer assay was used for detection of HIV-1 mediated cell fusion as previously described (21, 24, 34). H9/HIV-1IIIB cells were labeled with a fluorescent reagent, Calcein-AM (Molecular Probes, Inc., Eugene, Oreg.) and then incubated with MT-2 cells (ratio=1:5) in 96-well plates at 37° C. for 2 hrs in the presence or absence of compounds tested. The fused and unfused Cacein-labeled HIV-1-infected cells were counted under an inverted fluorescence microscope (Zeiss, Germany) with an eyepiece micrometer disc. The percentage of inhibition of cell fusion and the IC50 values were calculated as previously described (21).

gp120-CD4 binding = molecular target: T1, gp120-CD4 binding (Human immunodeficiency virus type 1 group M subtype B, UniProt P03375); set-up: species or system HIV-1; details: 10 μg/ml
T1 construct: purchased Immunodiagnostics, Woburn, Mass; (gp120); Genentech Inc., South San Francisco, Calif; (sCD4)
Method: Inhibition of gp120 binding to CD4. Wells of polystyrene plates was coated with 100 μl of sheep anti-gp120 antibody D7324 (Cliniqa, Fallbrook, Calif.) at 2 μg/ml in carbonate buffer (pH 9.6) at 4° C. overnight and blocked with 1% dry fat-free milk in PBS at 37° C. for 1 h. One hundred microliters of recombinant gp120 molecule (Immunodiagnostics, Woburn, Mass.) at 0.5 μg/ml in PBS was added and incubated at 37° C. for 1 h, followed by three washes with PBS-T. Soluble CD4 (sCD4) at 0.25 μg/ml was added in the presence of a compound (25 μM) and incubated at 37° C. for 1 h. After three washes, rabbit anti-sCD4 IgG (0.25 μg/ml in PBS, 100 μl/well) was added and incubated at 37° C. for 1 h. Binding of rabbit anti-sCD4 IgG was determined by sequential addition of biotinylated goat-anti-rabbit IgG, SA-HRP, and TMB. After the reactions were terminated, absorbance at 450 nm was recorded in an ELISA reader (Tecan).
HIV-1 envelope glycoprotein gp120 was captured by the anti-gp120 antibody coated onto wells of polystyrene plates. […] After extensive washes, CD4 molecule bound to gp120 was quantitated by ELISA using anti-CD4 antibody.

CXCR4 = molecular target: T2, CXCR4 (Homo sapiens, UniProt P61073); test: inhibition of anti-CXCR4 antibody 12G5 binding to CXCR4-expressing cells, cell-based ELISA; details: 25 μM
T2 construct: expressed in transfected cells; host or cells: U373-MAGI-CXCR4CEM cells
T2 sequence (P61073 whole entry): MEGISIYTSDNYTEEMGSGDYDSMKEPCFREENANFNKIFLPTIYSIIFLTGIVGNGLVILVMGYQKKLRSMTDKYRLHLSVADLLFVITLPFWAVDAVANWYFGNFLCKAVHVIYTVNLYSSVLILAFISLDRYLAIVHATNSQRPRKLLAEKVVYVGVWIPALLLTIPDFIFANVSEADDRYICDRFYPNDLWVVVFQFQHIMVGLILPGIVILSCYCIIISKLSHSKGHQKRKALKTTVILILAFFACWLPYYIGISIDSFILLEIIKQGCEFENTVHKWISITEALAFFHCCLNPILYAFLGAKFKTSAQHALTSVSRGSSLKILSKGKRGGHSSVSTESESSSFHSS
Method: Inhibition of anti-CXCR4 antibody binding to CXCR4-expressing cells. The inhibition of the binding of anti-CXCR4 antibody to CXCR4-expressing cells was determined using a cell-based ELISA as described previously (52). Briefly, U373-MAGI-CXCR4CEM cells (1×10^5/well) which express CXCR4 molecules were cultured in a 96-well plate at 37° C. overnight. The cells were fixed with 5% formaldehyde at room temperature for 15 min and washed with PBS-T. The cells were incubated with anti-CXCR4 mAb 12G5 at 37° C. for 1 h in the presence or absence of compounds tested. Isotype IgG2a was used as a control.

[2] = tested on: gp41 pocket presented on IQN17
Method: Inhibition of a biotinylated D-peptide binding to IQN17. For measuring the binding of a D-peptide, D10-p5-2k to IQN17, an ELISA was established. In brief, wells of a 96-well polystyrene plate were coated with IgG (10 μg/ml) purified from rabbit antisera directed against IQN17. The peptide IQN17 (10 μM) was incubated with a compound at graded concentrations at 37° C. for 30 min before addition of the peptide D10-p5-2K-biotin (5 μM). After incubation at 37° C. for 30 min, the mixture was added to the plate, followed by incubation at 37° C. for 30 min. After extensive washes, D10-p5-2K-biotin bound to the IQN17 was quantitated by addition of SA-HRP and TMB sequentially. The absorbance at 450 nm was read using an ELISA reader (Tecan). The percentage of inhibition by the compounds was calculated as described above.

Structure (SMILES)	IC50 (μg/ml) for inhibition of p24 production (HIV-1 RF (clade B, X4))	IC50 (μg/ml) for inhibition of cell-cell fusion [1]	inhibition of gp120-CD4 binding (gp120-CD4 binding)	inhibition of 12G5 binding to U373-MAGI-CXCR4CEM cells (CXCR4)	inhibition of biotinylated D10-p5-2K binding to IQN17 [2]
Cc1ccc(C)n1-c1ccc(C(=O)O)c(O)c1 [NB-2]	0.45 ± 0.04 µg/mL	1.53 ± 0.17 µg/mL	did not significantly inhibited	no inhibitory activity	significantly inhibited
O=C(O)c1cc(-n2cccc2)ccc1Cl [NB-64]	0.96 ± 0.03 µg/mL	2.02 ± 0.19 µg/mL	did not significantly inhibited	no inhibitory activity	significantly inhibited
